Data published in patent publication US7026122B2, “Methods of assaying for compounds that inhibit premature translation termination and nonsense-mediated RNA decay” (PTC Therapeutics, Inc., priority 1999, dated 2006).
Blank lines part the entries; values can stand above or below the compound they belong to.

Key:
[1] = test system: premature translation termination (luciferase reporter with premature stop codon); test: Suppression assay in cells transiently transfected with stop codon luciferase plasmids; type: cell-based; conditions: cells transiently infected with pMLT49, pMLT54 or pMLT55h for 24 hours; 12 hour exposure; FIGS. 2A-C
Protocol: Cells, transiently infected with the indicated plasmids for 24 hours, were exposed to the indicated concentration of G418 (panel A, pMLT49; panel B, pMLT54; panel C, pMLT55h). Luciferase activity was measured after a 12 hour exposure.

[2] = test system: premature translation termination and NMD (luciferase reporter with premature stop codon); test: Cell-based assay, 293 cells stably transfected with pMLT55, luciferase activity; conditions: 12 hour exposure
Protocol: The indicated independent clones were exposed to the indicated concentrations of G418. Luciferase activity was measured after a 12 hour exposure.
The indicated cell numbers were plated per well of a 96 well plate. Cells were exposed to the indicated concentrations of G418. Luciferase activity was measured after a 12 hour exposure on a robotic 96 well plate reader. Gentamycin was also used to inhibit NMD and premature translation termination.
On day 1, clone 55–31, a 293 cell line stably transfected with pMLT 55 (see FIG. 1) was plated in 96 well plates in the morning in DMEM media with 10% fetal bovine serum. Approximately 80 plates are plated at 40,000 cells per well in 100 μL. The cells were incubated overnight at 37° C.
On day two, test compounds (1 μL of 1 mM stock solution in 100 μL DMSO; 10 μM final concentration) were added. G418 (1 mg/ml) was added to column 12 of each plate as a control. The plates were incubated at 37° C. for 12–16 hours.
On day three, luciferase substrate was added to the cells and the plates were read on a Torcon automated luciferase assay reader for 96 well plates (see, e.g., FIGS. 3–4). Luciferase substrate is commercially available, e.g., from Promega.

[3] = test system: premature translation termination (stop codon-containing luciferase RNA); test: Biochemical suppression assay using RRL (rabbit reticulocyte lysate) and luciferase RNA; conditions: WT or stop codon luciferase RNA, incubated 45 or 90 minutes, FIGS. 7A-B
Protocol: In vitro translation assays were performed in the presence of RRL, luciferase RNA (panel A, WT; panel B, stop codon) and the indicated concentrations of gentamycin. Reactions were incubated 45 or 90 minutes before luciferase activity was determined. WT and stop codon containing RNA are schematically shown. The reactions were performed in either a 96 or 384 well format. In vitro synthesized reporter RNA (see constructs in FIG. 5) was added to 15 μL of fully supplemented rabbit reticulocyte lysate according to standard methodology (prepared by the method of Jackson & Hunt, Methods in Enzymology 96:50–75 (1983). 0.5 to 1 μg of in vitro transcribed RNA was used per reaction. The reaction was mixed with 15 μL of a 2% DMSO solution containing 20 μM of test compound. The reaction was incubated for 90 minutes at 30° C. in a humidified incubator. Luciferase substrate was added and luciferase activity was read on a Torcon automated reader (see FIGS. 6–7).

[4] = test system: premature stop codons in the dystrophin gene; conditions: mdx mouse, Barton-Davis et al. 1999; cited from earlier work

Compound: CN[C@@H]1[C@@H](O)[C@@H](O[C@@H]2[C@@H](O)[C@H](O[C@H]3O[C@H]([C@@H](C)O)[C@@H](O)[C@H](O)[C@H]3N)[C@@H](N)C[C@H]2N)OC[C@]1(C)O [G418]
- G418-mediated suppression (luciferase activity) [1]: not cell line specific
- G418-mediated suppression (luciferase activity), high throughput format ([2]; clone #31, 96 well plate, FIG. 4): suppression in a stably transfected 293 cell line (clone #31) in high throughput format
- G418-mediated suppression (relative luciferase activity, fold activation) ([2]; independent clones of 293 cells stably transfected with pMLT55, FIGS. 3A-B): suppression in various clones of stably transfected 293 cells

- Suppression by gentamycin (luciferase activity) [3]: time dependent
Compound: gentamycin

Compound: gentamycin sulfate
- Suppression of translational termination at premature stop codons [4]: found to suppress translational termination at premature stop codons in the dystrophin gene
